The target in assay [1] is T1, Adenosine receptor A3 (Homo sapiens, UniProt P0DMS8).
T1 sequence (P0DMS8 whole entry): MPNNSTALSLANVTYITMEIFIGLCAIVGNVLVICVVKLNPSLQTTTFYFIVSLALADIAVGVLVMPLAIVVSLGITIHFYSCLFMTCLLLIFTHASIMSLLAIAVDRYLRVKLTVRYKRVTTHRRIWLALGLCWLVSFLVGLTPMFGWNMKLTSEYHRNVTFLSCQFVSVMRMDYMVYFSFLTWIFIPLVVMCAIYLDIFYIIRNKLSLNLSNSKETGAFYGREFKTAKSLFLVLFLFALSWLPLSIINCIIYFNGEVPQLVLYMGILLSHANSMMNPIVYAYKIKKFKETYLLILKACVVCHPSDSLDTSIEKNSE

Assay [2] concerns the target T2, Progesterone receptor (Homo sapiens, UniProt P06401).
T2 sequence (P06401 whole entry): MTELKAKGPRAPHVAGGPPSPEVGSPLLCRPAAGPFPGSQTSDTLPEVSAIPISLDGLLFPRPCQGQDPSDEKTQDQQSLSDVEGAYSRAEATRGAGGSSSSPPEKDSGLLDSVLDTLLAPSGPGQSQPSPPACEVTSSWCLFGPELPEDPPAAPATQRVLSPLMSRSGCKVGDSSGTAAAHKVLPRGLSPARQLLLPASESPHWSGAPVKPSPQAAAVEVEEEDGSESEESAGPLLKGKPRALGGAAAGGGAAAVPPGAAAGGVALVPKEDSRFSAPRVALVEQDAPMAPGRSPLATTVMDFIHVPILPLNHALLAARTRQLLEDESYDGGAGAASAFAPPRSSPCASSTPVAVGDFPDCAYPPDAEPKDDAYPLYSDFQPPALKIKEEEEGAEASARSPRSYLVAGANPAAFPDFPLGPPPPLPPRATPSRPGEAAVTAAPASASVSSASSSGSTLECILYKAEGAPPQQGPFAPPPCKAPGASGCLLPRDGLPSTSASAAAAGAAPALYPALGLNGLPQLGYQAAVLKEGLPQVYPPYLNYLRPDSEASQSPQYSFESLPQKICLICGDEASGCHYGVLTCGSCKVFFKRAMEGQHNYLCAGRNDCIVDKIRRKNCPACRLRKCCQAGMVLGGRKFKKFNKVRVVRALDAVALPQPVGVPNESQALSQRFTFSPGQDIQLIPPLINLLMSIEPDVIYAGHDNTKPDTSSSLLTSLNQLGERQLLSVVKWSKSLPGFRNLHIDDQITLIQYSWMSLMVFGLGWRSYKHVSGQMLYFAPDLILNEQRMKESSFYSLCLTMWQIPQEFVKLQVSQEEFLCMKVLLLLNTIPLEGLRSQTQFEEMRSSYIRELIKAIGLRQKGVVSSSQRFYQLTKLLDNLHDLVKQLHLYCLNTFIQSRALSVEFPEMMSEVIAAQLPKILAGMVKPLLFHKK

*1 amine or outer side, *2 acyl side, *3 side chain or, on linkers, in order; H or OH if unused. Where a SMILES comes first, the peptide text is derived from it. Bridges are numbered along the chain shown (N, C = ends). [ ]: non-standard residue; d: D form. The star is where a group is joined. hTyr(3S-OH,4S-OH,3'-OSO3H) = N[C@H](C(=O)O)[C@H](O)[C@@H](O)c1ccc(O)c(OS(=O)(=O)O)c1; Orn(4R-OH,5R-OH) = O=C([C@H](C[C@@H](O)[C@@H](O)N[*:3])N[*:1])[*:2]; Pro(3S-OH,4S-Me) = C[C@H]1CN[C@H](C(=O)O)[C@H]1O; X1 = CCCCCOc1ccc(-c2cc(-c3ccc(C(=O)*)cc3)no2)cc1; Gln(3R-OH) = NC(=O)C[C@@H](O)[C@H](N)C(=O)O; Hyp = O=C(O)[C@@H]1C[C@@H](O)CN1
Further: assay procedure not described here.

Consider `CN1CCC[C@@H]1Cc1c[nH]c2ccc(CCS(=O)(=O)c3ccccc3)cc12`, for which the half-maximal activity concentration (AC50) in assay [1] and in assay [2] was above 30 µM each time.
`NC(=O)c1nc(F)c[nH]c1=O`: the half-maximal activity concentration (AC50) in assay [1] and in assay [2] was above 30 µM each time.
For `O=S(=O)(O)CCS` [2-MERCAPTOETHANESULFONIC ACID], the concentration at half-maximal activity (AC50) in assay [1] and in assay [2] was above 30 µM each time.
`O=C(O)COc1nn(Cc2ccccc2)c2ccccc12` [BENDAZAC]: the concentration at half-maximal activity (AC50) in assay [1] and in assay [2] was above 30 µM in each case.
Take `Cc1ccc([C@@H]2O[C@H](CO)[C@@H](O)[C@H](O)[C@H]2O)cc1Cc1ccc(-c2ccc(F)cc2)s1` [CANAGLIFLOZIN ANHYDROUS]: the figures for the half-maximal activity concentration (AC50) in assay [1] and in assay [2] were 18.4 µM and above 30 µM, respectively.
On the same counts, the results for `O=C(O)CCCc1ccc(N(CCCl)CCCl)cc1` [CHLORAMBUCIL] are above 30 µM and above 30 µM.
On the same counts, the results for `CN(C)CCN(Cc1ccc(Cl)cc1)c1ccccn1` [CHLOROPYRAMINE] are above 30 µM and above 30 µM.
For `O=C(O)c1cc(=O)c2ccccc2o1` [CHROMOCARB], in that order: above 30 µM and above 30 µM.
Consider `CN(CC(=O)O)C(=N)N` [CREATINE], for which the AC50 in assay [1] and in assay [2] was above 30 µM throughout.
Turning to `N[C@@H](CSSC[C@H](N)C(=O)O)C(=O)O` [CYSTINE], the AC50 in assay [1] and in assay [2] was above 30 µM each time.
Consider `Cn1c(=O)c2c(ncn2CC(O)CO)n(C)c1=O` (configuration not stated) [DYPHYLLINE], for which the half-maximal activity concentration (AC50) in assay [1] and in assay [2] was above 30 µM each time.
`C[C@]12CC[C@@H]3c4ccc(O)cc4CC[C@H]3[C@@H]1CC[C@@H]2OC(=O)CCC1CCCC1` [ESTRADIOL CYPIONATE]: the concentration at half-maximal activity (AC50) is 9.98 µM in assay [1] and 1.65 µM in assay [2].
For `CC1(C)O[C@@H]2C[C@H]3[C@@H]4CCC5=CC(=O)CC[C@]5(C)[C@@]4(F)[C@@H](O)C[C@]3(C)[C@]2(C(=O)CCl)O1` [HALCINONIDE], in that order: above 30 µM and 0.003 µM.
On the same counts, the results for `C[C@]12CCC(=O)C=C1CC[C@@H]1[C@@H]2[C@@H](O)C[C@@]2(C)[C@H]1CC[C@]2(O)C(=O)COC(=O)CCC(=O)O` [HYDROCORTISONE HEMISUCCINATE ANHYDROUS] are above 30 µM and above 30 µM.
On the same counts, the results for `N=C(N)NCc1cccc([123I])c1` [IOBENGUANE I 123] are above 30 µM and above 30 µM.
With `C=C1c2c(Cl)ccc(O)c2C(=O)C2=C(O)[C@]3(O)C(=O)C(C(N)=O)=C(O)[C@@H](N(C)C)[C@@H]3[C@@H](O)[C@H]12` [MECLOCYCLINE], the AC50 in assay [1] and in assay [2] was above 30 µM throughout.
Take `Cc1cc2c(OCC(O)CNC(C)C)cccc2[nH]1` (configuration not stated) [MEPINDOLOL]: the AC50 in assay [1] and in assay [2] was above 30 µM in each case.
For `CCCCCOc1ccc(-c2cc(-c3ccc(C(=O)N[C@H]4C[C@@H](O)[C@@H](O)NC(=O)[C@@H]5[C@@H](O)[C@@H](C)CN5C(=O)[C@H]([C@H](O)CC(N)=O)NC(=O)[C@H]([C@H](O)[C@@H](O)c5ccc(O)c(OS(=O)(=O)O)c5)NC(=O)[C@@H]5C[C@@H](O)CN5C(=O)[C@H]([C@@H](C)O)NC4=O)cc3)no2)cc1` [MICAFUNGIN] (X1-[Orn(4R-OH,5R-OH)]T[Hyp][hTyr(3S-OH,4S-OH,3'-OSO3H)][Gln(3R-OH)][Pro(3S-OH,4S-Me)]; lactam 1-C), the values for the AC50 in assay [1] and in assay [2] were 11.4 µM and 3.87 µM, respectively.
On the same counts, the results for `CCOc1cc(N)c(Cl)cc1C(=O)NCC1CN(Cc2ccc(F)cc2)CCO1` (configuration not stated) [MOSAPRIDE] are 14.5 µM and above 30 µM.
For `CCOc1ccc2ccccc2c1C(=O)N[C@@H]1C(=O)N2[C@@H]1SC(C)(C)[C@@H]2C(=O)O` [NAFCILLIN], in that order: above 30 µM and above 30 µM.
For `CN1CCC[C@H]1c1cccnc1` [NICOTINE], in that order: above 30 µM and above 30 µM.
Regarding `CCCCCCCCCCC[C@@H](C[C@@H]1OC(=O)[C@H]1CCCCCC)OC(=O)[C@H](CC(C)C)NC=O` [ORLISTAT], the half-maximal activity concentration (AC50) in assay [1] and in assay [2] was above 30 µM each time.
Turning to `O=C1[C@H]2CCCC[C@H]2C(=O)N1CCCCN1CCN(c2nsc3ccccc23)CC1` [PEROSPIRONE], the AC50 in assay [1] and in assay [2] was above 30 µM each time.
As to `CN(C)CCC(c1ccccc1)c1ccccn1` (configuration not stated) [PHENIRAMINE], the half-maximal activity concentration (AC50) in assay [1] and in assay [2] was above 30 µM in each case.
Take `CC(C)COc1ccc(CNC(=O)N(Cc2ccc(F)cc2)C2CCN(C)CC2)cc1` [PIMAVANSERIN]: the concentration at half-maximal activity (AC50) in assay [1] and in assay [2] was above 30 µM in each case.
Regarding `CC(C)[N+](C)(CCOC(=O)C1c2ccccc2Oc2ccccc21)C(C)C` [PROPANTHELINE], the AC50 in assay [1] and in assay [2] was above 30 µM throughout.
Turning to `CN(C)C(=O)c1nc(CNC(=O)CN)n(-c2ccc(Cl)cc2C(=O)c2ccccc2Cl)n1` [RILMAZAFONE], the concentration at half-maximal activity (AC50) in assay [1] and in assay [2] was above 30 µM throughout.
In the case of `NC(=O)NS(=O)(=O)c1ccc(N)cc1` [SULFACARBAMIDE], the concentration at half-maximal activity (AC50) in assay [1] and in assay [2] was above 30 µM each time.
Turning to `CCCCCCCCNC(C)C(O)c1ccc(SC(C)C)cc1` (configuration not stated) [SULOCTIDIL], the concentration at half-maximal activity (AC50) in assay [1] is 9.82 µM; in assay [2], above 30 µM.
For `NCCc1ccc(O)cc1` [TYRAMINE], in that order: above 30 µM and above 30 µM.
For `CCCCCCCCCCCCCCCC(=O)OC/C=C(C)/C=C/C=C(C)/C=C/C1=C(C)CCCC1(C)C` [VITAMIN A PALMITATE], in that order: 11.6 µM and above 30 µM.

Broadly, the AC50 is the midpoint of the concentration-response curve, whichever way the signal moves.

(Values after ChEMBL document CHEMBL5291721, “A preclinical secondary pharmacology resource illuminates target-adverse drug reaction associations of marketed drugs” (Nat Commun, 2023).)
